We go through eight compounds from patent US20050171101A1 (Fujisawa Pharmaceutical Co. Ltd., priority 2002, published 2005).

Where a name gives a salt, the structure may show the parent alone.

recombinant human PARP, sequence (P09874 whole entry): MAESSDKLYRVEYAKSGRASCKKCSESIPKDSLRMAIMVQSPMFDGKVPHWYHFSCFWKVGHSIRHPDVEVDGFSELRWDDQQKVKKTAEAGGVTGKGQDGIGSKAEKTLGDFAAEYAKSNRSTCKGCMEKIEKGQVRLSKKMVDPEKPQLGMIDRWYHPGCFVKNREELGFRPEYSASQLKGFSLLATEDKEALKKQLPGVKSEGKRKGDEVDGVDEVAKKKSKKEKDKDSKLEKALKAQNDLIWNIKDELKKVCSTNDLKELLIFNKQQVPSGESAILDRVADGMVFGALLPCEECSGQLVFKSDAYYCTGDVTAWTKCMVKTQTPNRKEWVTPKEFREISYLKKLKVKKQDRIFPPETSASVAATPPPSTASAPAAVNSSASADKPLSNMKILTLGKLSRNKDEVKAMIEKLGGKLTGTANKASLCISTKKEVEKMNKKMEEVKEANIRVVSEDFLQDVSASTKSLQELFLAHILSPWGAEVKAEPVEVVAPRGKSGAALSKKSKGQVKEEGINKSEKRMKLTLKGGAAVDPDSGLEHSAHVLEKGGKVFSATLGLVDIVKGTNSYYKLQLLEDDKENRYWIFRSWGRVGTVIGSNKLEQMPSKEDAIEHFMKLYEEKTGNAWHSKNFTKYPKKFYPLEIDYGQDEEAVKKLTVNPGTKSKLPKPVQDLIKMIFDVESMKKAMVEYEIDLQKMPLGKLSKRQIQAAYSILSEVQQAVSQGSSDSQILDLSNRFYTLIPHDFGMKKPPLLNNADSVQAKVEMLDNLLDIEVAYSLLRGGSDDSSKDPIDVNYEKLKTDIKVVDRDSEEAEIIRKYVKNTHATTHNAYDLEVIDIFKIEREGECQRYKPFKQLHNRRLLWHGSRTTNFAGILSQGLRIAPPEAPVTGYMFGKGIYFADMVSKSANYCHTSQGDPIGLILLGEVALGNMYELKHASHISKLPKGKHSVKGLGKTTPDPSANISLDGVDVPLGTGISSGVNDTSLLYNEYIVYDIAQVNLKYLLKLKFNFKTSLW

The target in this test is recombinant human PARP (Homo sapiens, UniProt P09874). Nature of the test: PARP inhibitory activity (In vitro assay). The format is biochemical. The following applies: 32P-NAD, 0.05 mM NAD, activated DNA, pH8.0, 15 minutes at room temperature. As for the experimental part:
PARP inhibitory activity (In vitro assay)
The recombinant human PARP (5.3 mg protein/ml) was incubated with a test compound in a 100 μl reaction buffer containing an indicated concentration of 1 mCi/ml ^32P-NAD, 50 mM Tris-HCl, 25 mM MgCl2, 1 mM DTT (dithiothreitol), 0.05 mM NAD (nicotinamide adenine dinucleotide) and 1 mg/ml activated DNA, pH8.0. Incubation was carried out for 15 minutes at a room temperature, and the reaction was stopped by addition of 200 μl of ice-cold 20% tricholoroacetic acid followed by rapid filtration through GF/B filters. The […] was treated with scintillation fluid and acid-insoluble counts were measured for quantification of unit activity. PARP inhibitory activity was calculated by using the following formula: PARP inhibitory activity (%)=[1-(count obtained with test compound)/(count obtained with vehicle only)]×100
In the case of `O=c1[nH]c2cc(CN3CCC(O)(c4ccccc4)CC3)ccc2c2c1CCCC2` [Example 35, 3-[(4-hydroxy-4-phenyl-1-piperidyl)methyl]-7,8,9,10-tetrahydro-6(5H)-phenanthridinone hydrochloride], the half-inhibitory concentration (IC50) is < 100 nM.
For `O=c1[nH]c2c(Oc3ccccn3)cccc2c2c1CCCC2` [Example 42], the IC50 was < 100 nM.
As to `O=c1[nH]c2ccc(CCCN3CC=C(c4ccc(F)cc4)CC3)cc2c2ccccc12` [Example 2, 2-{3-[4-(4-fluorophenyl)-3,6-dihydro-1 (2H)-pyridyl]propyl}-6(5H)-phenanthridinone], the IC50 was < 100 nM.
For `O=c1[nH]c2cc(CN3CCCCC3)ccc2c2ccccc12` [Example 60, 3-(1-piperidylmethyl)-6(5H)-phenanthridinone], the half-inhibitory concentration (IC50) is < 100 nM.
Take `O=c1[nH]c2cc(CN3CC=C(c4ccc(Cl)cc4)CC3)ccc2c2c1CCCC2` [Example 15, 3-{[4-(4-Chlorophenyl)-3,6-dihydro-1(2H)-pyridyl]methyl}-7,8,9,10-tetrahydro-6(5H)-phenanthridinone]: the IC50 is < 100 nM.
Under `Cc1ccc(C2CCN(Cc3ccc4c(c3)[nH]c(=O)c3ccccc34)CC2)nc1` [Example 63, 3-{[4-(5-methyl-2-pyridyl)-1-piperidyl]methyl}-6(5H)-phenanthridinone] stands < 100 nM; under `O=c1[nH]c2cc(CN3CCN(c4ccc(Cl)cn4)CC3)ccc2c2ccccc12` [Example 52, 3-{[4-(5-chloro-2-pyridyl)-1-piperazinyl]methyl}-6(5H)-phenanthridinone dihydrochloride], < 100 nM; under `Cc1ccc(C2CCN(Cc3ccc4c5c(c(=O)[nH]c4c3)CCCC5)CC2)cc1` [Example 30, 3-{[4-(4-methylphenyl)-1-piperidyl]methyl}-7,8,9,10-tetrahydro-6(5H)-phenanthridinone hydrochloride], < 100 nM.
